We go through 4 compounds from patent US3948927A, “2,2-Dimethyl-3R-carboxy-6S-amino-1-oxa-4-aza-5R-bicyclo-[3,2,0]heptan-7-o ne” (Queen's University, priority 1974, dated 1976).

Type in all cases: cell-based
For one test, the system named is S. aureus. Briefly: MIC, antibacterial activity. Particulars: Staphylococcus aureus.
A further test relates to Ps. aeruginosa. Briefly: MIC, antibacterial activity. As to conditions: Pseudomonas aeruginosa; at 10^-^4 dil'n.
A further test deals with S. aureus Meth. Resist. In words: MIC, antibacterial activity. As to conditions: Staphylococcus aureus.
The test system of the next test is Pr. morganii. In words: MIC, antibacterial activity. Particulars: Morganella morganii; at 10^-^4 dil'n.
The next test deals with Pr. mirabilis. In words: MIC, antibacterial activity. As to conditions: Proteus mirabilis; at 10^-^4 dil'n.
In another test the test system is Ser. marcescens. In words: MIC, antibacterial activity. Particulars: Serratia marcescens; at 10^-^4 dil'n.
The next test deals with Sal. enteritidis. Briefly: MIC, antibacterial activity. Particulars: Salmonella enterica, at 10^-^4 dil'n.
The next test has as its system E. coli. Briefly: MIC, antibacterial activity. Particulars: Escherichia coli; at 10^-^4 dil'n.
A further test has as its system Str. pyogenes. In words: MIC, antibacterial activity. As to conditions: Streptococcus pyogenes; + 5% serum; 45% AAB at 10^-^3 dil'n + 50% Medium Shown. The text has this:
(§1) *45% AAB at 10^-^3 dil'n + 50% Medium Shown

The subject of the next test is D. pneumoniae. Briefly: MIC, antibacterial activity. As to conditions: Streptococcus pneumoniae; + 5% serum; 45% AAB at 10^-^3 dil'n + 50% Medium Shown.
Source text: as §1

The test system of a further test is E. coli Juhl. Briefly: MIC, antibacterial activity. As to conditions: Escherichia coli; at 10^-^4 dil'n.
Another test concerns K. pneumoniae. Briefly: MIC, antibacterial activity. Particulars: Klebsiella pneumoniae; at 10^-^4 dil'n.
The next test relates to S. aureus BX-1633-2. In words: MIC, antibacterial activity. As to conditions: Staphylococcus aureus.
A further test relates to S. aureus Smith. In words: MIC, antibacterial activity. Particulars: Staphylococcus aureus.
Test [1] in a line: antibacterial activity (organism not stated). As to conditions: at levels of 250 mcg./ml.
A further test deals with S. lutea. In words: antibacterial activity vs. S. lutea. As to conditions: level relative to phthalimidopenicillin. On the procedure: The compound was dissolved in methylene chloride and the solution extracted with 5% sodium bicarbonate. The aqueous extract was re-acidified to pH 2.5 and re-extracted with methylene chloride.
The crystalline trans acid in methylene chloride, was shaken with 5% bicarbonate for 5 min. The aqueous phase was then separated, acidified to pH 4.5 - 5.0 and extracted with methylene chloride. It was then acidifid to pH 2.5 and extracted twice with methylene chloride and twice with chloroform.

Test [2] deals with P. morganii and Ps. aeruginosa. In words: MIC of ampicillin versus resistant or β-lactamase producing bacteria, alone and with substituted azetidine-2-one. As to conditions: read-out: Minimum Inhibitory Concentration of ampicillin.

≈ marks a conversion by molar mass, not a printed value.

Take `CC1(C)S[C@@H]2[C@H](NC(=O)Cc3ccccc3)C(=O)N2[C@H]1C(=O)O` [Penicillin G]: the MIC against S. aureus (at 10^-^2 dil'n) was more than 125 µg/mL; against S. aureus (at 10^-^3 dil'n) it was 63 µg/mL (≈ 188 µM); in the test on Ps. aeruginosa, more than 125 µg/mL; against S. aureus Meth. Resist., 125 µg/mL (≈ 374 µM); in the test with Pr. morganii, more than 125 µg/mL; with Pr. mirabilis, 1 µg/mL (≈ 2.99 µM). Besides, the MIC was more than 125 µg/mL against Ser. marcescens; 0.13 µg/mL (≈ 0.389 µM) with Sal. enteritidis; 125 µg/mL (≈ 374 µM) in the test on E. coli; 0.004 µg/mL in the test with Str. pyogenes; 0.004 µg/mL in the test with D. pneumoniae; 32 µg/mL (≈ 95.7 µM) in the test on E. coli Juhl. The MIC was 2 µg/mL (≈ 5.98 µM) in the test with K. pneumoniae; more than 125 µg/mL against S. aureus BX-1633-2 (BX16332, at 10^-^2 dil'n); 125 µg/mL (≈ 374 µM) in the test on S. aureus BX-1633-2 (BX16332, at 10^-^3 dil'n); 0.016 µg/mL (≈ 0.0478 µM) in the test on S. aureus Smith (at 10^-^4 dil'n); 0.06 µg/mL in the test with S. aureus Smith (at 10^-^4 dil'n + 5% serum).
`CC(C)=C(C(=O)O)N1C(=O)[C@H]2N=C(Cc3ccccc3)O[C@H]21` [oxazoline carboxylic acid, 2-benzyl-6-(1'-carboxy-2'-methylprop-1'-enyl)-1-oxa-3,6-diaza-4S,5R-bicyclo [3,2,0] hept-2-en-7-one]: the “activity as an antibacterial agent” value in [1] was “inactive”.
On to `CC1(C)O[C@@H]2[C@H](N3C(=O)c4ccccc4C3=O)C(=O)N2[C@H]1C(=O)O` [6-phthalimido oxapenicillin], for which the “antibacterial activity relative to phthalimidopenicillin” value in the test with S. lutea is recorded as “one-tenth the level of phthalimidopenicillin”.
Take `CC1(C)S[C@@H]2[C@H](NC(=O)[C@H](N)c3ccccc3)C(=O)N2[C@H]1C(=O)O` [ampicillin]: in [2], the MIC lay within 500 to 1000 µg/mL.
